Earlier results in patent US9974722B2, “Reduced-ethanol mouth rinse formulations” (Johnson & Johnson Consumer Inc., priority 2016, dated 2018).

solubility in alcohol: only slightly soluble
Structure (SMILES): CC1CCC(C(C)C)C(O)C1 (stereo not shown) [Menthol]
